The text below walks through data of patent US20080317857A1, “V-Atpase Inhibitors of Use in the Treatment of Septic Shock” (Brane Discovery S.r.l., priority 2005, published 2008).

A word on the inhibition: it is the drop in the measured response relative to a control, in per cent.

For one experiment, the system named is PMNs. The experiment is described as follows: Chemoattractant-induced rapid adhesion of PMNs to fibrinogen (CR3 ligand). It counts as cell-based. As to conditions: Homo sapiens, read-out: Inhibition of Adhesion (%) PMNs (fMLP) (converted); for inhibition at 25 µM: [cpd] 25 μM; for inhibition at 50 µM: [cpd] 50 μM; for inhibition at 100 µM: [cpd] 100 μM. The protocol:
(§1) Adhesion was performed on purified integrin ligands and was evaluated as reported in Constantin G. et al., Immunity, 16, 759-769, 2000. Briefly, primary naïve lymphocytes, polymorphonuclear neutrophils (PMNs) or monocytes were isolated form healthy donors. In other experiments, murine autoreactive T cells were obtained from SJL mice immunized with PLP139-151 as described (Piccio L. et al., J. Immunol. 168, 1940-1949, 2002). Cells were resuspended at 4×10^6/ml in PBS, CaCl2, MgCl2 1 mM, 10% FCS, pH 7.2. Adhesion assays were performed on eighteen well glass slides coated overnight at 4° C. with ligands for CR3 (fibrinogen) or LFA-1 (ICAM-1). 20 μl of cell suspension were added to the wells and stimulated at 37° C. with 5 μl of agonists prior to washing, fixation and computer-assisted enumeration of bound cells.
(§2) Integrin activation was measured as induction of rapid adhesion triggered by the classical chemoattractant N-formyl-L-methionyl-L-leucyl-phenylalanine (fMLP) (100 nM) or by the CC chemokine MIP3β (CCL19, 1 μM). PMNs and monocytes were triggered to adhere to fibrinogen (CR3 ligand); naive human lymphocytes or murine encephalitogenic T cells were triggered to adhere to ICAM-1 (LFA-1 ligand). Triggered adhesion was evaluated after 2 min of stimulation under static conditions. The cells were pretreated at 37° C. for 30-60 min with the indicated concentrations of the test compound. Results are expressed as percentage of inhibition over control (=100%) and are the mean of three experiments in the case of human leukocytes. Results are expressed as mean counts and are the mean counts±S.D of three experiments and are the mean of three experiments in the case of murine encephalitogenic lymphocytes.
(§3) Integrin activation was measured as induction of rapid adhesion triggered by the “classical” chemoattractant fMLP (100 nM) or by the CC chemokine MIP3β(CCL19, 1 μM). PMNs were triggered to adhere to fibrinogen (CR3 ligand); lymphocytes were triggered to adhere to ICAM-1 (LFA-1 ligand).

The subject of another experiment is Lymphocytes. The experiment is described as follows: Chemokine-induced rapid adhesion of lymphocytes to ICAM-1 (LFA-1 ligand). Format: cell-based. The following applies: Homo sapiens, Lymphocyte, read-out: Inhibition of Adhesion (%) Lymphocytes (MIP3-β) (converted); for inhibition at 25 µM: [cpd] 25 μM; for inhibition at 50 µM: [cpd] 50 μM; for inhibition at 100 µM: [cpd] 100 μM. On the procedure:
as §1, §2, §3

Experiment [1] has as its system encephalitogenic lymphocytes. The experiment in a line: Chemokine-induced adhesion of murine encephalitogenic T cells to ICAM-1. It counts as cell-based, murine (SJL mice). As to conditions: NT control in the same cell. The protocol: as §1, §2
Chemokines trigger rapid arrest of lymphocytes in blood vessels through pertussis toxin-sensitive G protein coupled receptors. […] Autoreactive lymphocytes were then stimulated with 1 μM CCL19 (MIP-3beta) for 3 min.

Consider `COc1ccc(-c2c(C#N)n(CCN3CCOCC3)c3cc(OC)c(OC)cc23)cc1` [Example 56], for which, in the experiment with PMNs, the inhibition at 25 µM is 3.4%, the inhibition at 50 µM was 11.6% and the inhibition at 100 µM was 8.7%. For the same compound, in the experiment with Lymphocytes, the inhibition at 25 µM was 0%, the inhibition at 50 µM was 12.6% and the inhibition at 100 µM was 72.8%. In addition, in experiment [1] ([cpd] 5 μM), the “Chemokine-induced Adhesion in encephalitogenic lymphocytes, Mean counts ± S.D., in absence of MIP3-β stimulation” value is 64.1 ± 9.9 and the “Chemokine-induced Adhesion in encephalitogenic lymphocytes, Mean counts ± S.D., in presence of MIP3-β stimulation” value is 92.3 ± 2.3. In addition, in experiment [1] ([cpd] 50 μM), the “Chemokine-induced Adhesion in encephalitogenic lymphocytes, Mean counts ± S.D., in absence of MIP3-β stimulation” value is on record as 49.7 ± 3.9 and the “Chemokine-induced Adhesion in encephalitogenic lymphocytes, Mean counts ± S.D., in presence of MIP3-β stimulation” value is on record as 79.4 ± 12.1.

In the case of `COC(=O)c1c(-c2ccc(OC)cc2)c2cc(OC)c(OC)cc2n1CCN1CCCC1` [Example 52], in the experiment with PMNs, the inhibition at 25 µM is 0.8%, the inhibition at 50 µM is 11% and the inhibition at 100 µM is 6.1%. In the experiment with Lymphocytes, the inhibition at 25 µM is 45.9%, the inhibition at 50 µM was 53.5% and the inhibition at 100 µM was 58.9%. For the same compound, in experiment [1] ([cpd] 1 μM), the “Chemokine-induced Adhesion in encephalitogenic lymphocytes, Mean counts ± S.D., in absence of MIP3-β stimulation” value is given as 51.9 ± 3.9 and the “Chemokine-induced Adhesion in encephalitogenic lymphocytes, Mean counts ± S.D., in presence of MIP3-β stimulation” value came out at 118.9 ± 4.0. In addition, in experiment [1] ([cpd] 5 μM), the “Chemokine-induced Adhesion in encephalitogenic lymphocytes, Mean counts ± S.D., in absence of MIP3-β stimulation” value is recorded as 31.8 ± 3.1 and the “Chemokine-induced Adhesion in encephalitogenic lymphocytes, Mean counts ± S.D., in presence of MIP3-β stimulation” value is listed as 103.2 ± 10.2. Besides, in experiment [1] ([cpd] 50 μM), the “Chemokine-induced Adhesion in encephalitogenic lymphocytes, Mean counts ± S.D., in absence of MIP3-β stimulation” value is 24.9 ± 12.8 and the “Chemokine-induced Adhesion in encephalitogenic lymphocytes, Mean counts ± S.D., in presence of MIP3-β stimulation” value was 82.3 ± 8.1.

For `COc1ccc(-c2c3n(c4cc(OC)c(OC)cc24)CCOC3)cc1` [Example 76], in the experiment with PMNs, the inhibition at 25 µM was 25.6%, the inhibition at 50 µM was 35.7% and the inhibition at 100 µM was 66.3%. Besides, in the experiment with Lymphocytes, the inhibition at 25 µM is 30.1%, the inhibition at 50 µM was 40.3% and the inhibition at 100 µM was 48.3%.

`COc1ccc(-c2c3n(c4cc(OC)c(OC)cc24)CCN(S(=O)(=O)C(C)C)C3)cc1` [Example 68]: the “Chemokine-induced Adhesion in encephalitogenic lymphocytes, Mean counts ± S.D., in absence of MIP3-β stimulation” value amounted to 62.3 ± 9.0 in experiment [1] ([cpd] 5 μM) and 33.5 ± 6.0 in experiment [1] ([cpd] 50 μM). For the same compound, the figures for the “Chemokine-induced Adhesion in encephalitogenic lymphocytes, Mean counts ± S.D., in presence of MIP3-β stimulation” value in experiment [1] ([cpd] 5 μM) and in experiment [1] ([cpd] 50 μM) were 102.8 ± 5.5 and 74.3 ± 3.9, respectively.

In the case of `COc1ccc(-c2c(C(N)=O)[nH]c3cc(OC)c(OC)cc23)cc1` [Example 14], in the experiment on PMNs, the inhibition at 25 µM was 62.8%, the inhibition at 50 µM was 83.9% and the inhibition at 100 µM is 94.9%. In the experiment with Lymphocytes, the inhibition at 25 µM was 30.9%, the inhibition at 50 µM is 70.9% and the inhibition at 100 µM is 91.8%.

Consider `CCCn1c(C#N)c(-c2ccccc2)c2cc(OC)c(OC)cc21` [Example 50], for which the “Chemokine-induced Adhesion in encephalitogenic lymphocytes, Mean counts ± S.D., in absence of MIP3-β stimulation” value stood at 81.7 ± 11.9 in experiment [1] ([cpd] 5 μM) and 62.0 ± 4.0 in experiment [1] ([cpd] 50 μM). Moreover, the “Chemokine-induced Adhesion in encephalitogenic lymphocytes, Mean counts ± S.D., in presence of MIP3-β stimulation” value in experiment [1] ([cpd] 5 μM) was found to be 124.5 ± 8.1; in experiment [1] ([cpd] 50 μM) it was 92.0 ± 3.0.

For the compound `CCOC(=O)c1[nH]c2cc(OC)c(OC)cc2c1-c1ccncc1` [Example 81], in the experiment with PMNs, the inhibition at 25 µM is 14.4%, the inhibition at 50 µM was 0.8% and the inhibition at 100 µM is 0%. Further, in the experiment on Lymphocytes, the inhibition at 25 µM is 4.5%, the inhibition at 50 µM was 12.7% and the inhibition at 100 µM is 34.9%. Further, in experiment [1] ([cpd] 5 μM), the “Chemokine-induced Adhesion in encephalitogenic lymphocytes, Mean counts ± S.D., in absence of MIP3-β stimulation” value was 56.2 ± 11.1 and the “Chemokine-induced Adhesion in encephalitogenic lymphocytes, Mean counts ± S.D., in presence of MIP3-β stimulation” value is recorded as 84.5 ± 8.8. Moreover, in experiment [1] ([cpd] 50 μM), the “Chemokine-induced Adhesion in encephalitogenic lymphocytes, Mean counts ± S.D., in absence of MIP3-β stimulation” value amounted to 41.3 ± 3.6 and the “Chemokine-induced Adhesion in encephalitogenic lymphocytes, Mean counts ± S.D., in presence of MIP3-β stimulation” value was 99.2 ± 5.0.

With `COCCn1c(C(=O)OC)c(-c2ccc(OC)cc2)c2cc(OC)c(OC)cc21` [Example 39], in the experiment with PMNs, the inhibition at 25 µM was 33.8%, the inhibition at 50 µM was 39.1% and the inhibition at 100 µM was 44.8%. In the experiment on Lymphocytes, the inhibition at 25 µM is 8.2%, the inhibition at 50 µM is 26.4% and the inhibition at 100 µM was 41.4%. For the same compound, in experiment [1] ([cpd] 5 μM), the “Chemokine-induced Adhesion in encephalitogenic lymphocytes, Mean counts ± S.D., in absence of MIP3-β stimulation” value was 72.9 ± 8.8 and the “Chemokine-induced Adhesion in encephalitogenic lymphocytes, Mean counts ± S.D., in presence of MIP3-β stimulation” value is 118.2 ± 10.0. Moreover, in experiment [1] ([cpd] 50 μM), the “Chemokine-induced Adhesion in encephalitogenic lymphocytes, Mean counts ± S.D., in absence of MIP3-β stimulation” value is reported as 44.8 ± 1.9 and the “Chemokine-induced Adhesion in encephalitogenic lymphocytes, Mean counts ± S.D., in presence of MIP3-β stimulation” value stood at 104.4 ± 5.0.

Take `COc1ccc(-c2c3n(c4cc(OC)c(OC)cc24)CCNC3)cc1` [Example 28]: in the experiment on PMNs, the inhibition at 25 µM is 34.7%, the inhibition at 50 µM was 41% and the inhibition at 100 µM was 46.5%. In addition, in the experiment with Lymphocytes, the inhibition at 25 µM was 16.7%, the inhibition at 50 µM is 34.8% and the inhibition at 100 µM was 49.1%. For the same compound, in experiment [1] ([cpd] 5 μM), the “Chemokine-induced Adhesion in encephalitogenic lymphocytes, Mean counts ± S.D., in absence of MIP3-β stimulation” value was determined as 75.7 ± 9.0 and the “Chemokine-induced Adhesion in encephalitogenic lymphocytes, Mean counts ± S.D., in presence of MIP3-β stimulation” value turned out to be 127.0 ± 5.0. Also, in experiment [1] ([cpd] 50 μM), the “Chemokine-induced Adhesion in encephalitogenic lymphocytes, Mean counts ± S.D., in absence of MIP3-β stimulation” value came out at 48.6 ± 2.9 and the “Chemokine-induced Adhesion in encephalitogenic lymphocytes, Mean counts ± S.D., in presence of MIP3-β stimulation” value is given as 118.8 ± 10.8.

`COc1ccc(-c2c(-c3nnco3)[nH]c3cc(OC)c(OC)cc23)cc1` [Example 26]: in the experiment on PMNs, the inhibition at 25 µM is 34.7%, the inhibition at 50 µM was 50.5% and the inhibition at 100 µM was 57.5%. Further, in the experiment on Lymphocytes, the inhibition at 25 µM is 8.7%, the inhibition at 50 µM is 21.9% and the inhibition at 100 µM is 26.7%. Moreover, in experiment [1] ([cpd] 5 μM), the “Chemokine-induced Adhesion in encephalitogenic lymphocytes, Mean counts ± S.D., in absence of MIP3-β stimulation” value turned out to be 93.1 ± 7.5 and the “Chemokine-induced Adhesion in encephalitogenic lymphocytes, Mean counts ± S.D., in presence of MIP3-β stimulation” value worked out at 125.9 ± 7.2. Further, in experiment [1] ([cpd] 50 μM), the “Chemokine-induced Adhesion in encephalitogenic lymphocytes, Mean counts ± S.D., in absence of MIP3-β stimulation” value is 49.8 ± 5.9 and the “Chemokine-induced Adhesion in encephalitogenic lymphocytes, Mean counts ± S.D., in presence of MIP3-β stimulation” value is 98.9 ± 12.0.
